One assay deals with rats, heart and kidneys. As to the kind of experiment: Assay X: catecholamine analysis of heart and kidney tissue after 5 days of infusion. Format: in vivo, rat. How it is done: Following 5 days of infusion, the kidney was exposed through a small flank incision, made in the anesthetized rat, and the renal artery and vein were ligated. Following this the kidney was rapidly excised distal to the ligation and frozen in liquid nitrogen. Similarly, the heart was excised and frozen subsequent to the removal of both kidneys. The frozen tissues were stored in closed containers at −80° C. Tissue samples were thawed on ice and their weight recorded prior to being placed in a flat bottom tube. The cold extraction solvent (2 ml/g tissue) was then added and the sample was homogenized with a Polytron. Extraction Solvent: 0.1 M perchloric acid (3 ml of 70% PCA to 500 ml); 0.4 mM Na metabisulphite (38 mg/500 ml). The volume was then measured and 0.05 ml of a 1 uM/L solution of dihydroxybenzylamine (DHBA) in extraction solvent was added for every 0.95 ml of homogenate to yield a 50 nM/L internal standard concentration. The homogenate was then mixed and centrifuged at 4° C., 3000 rpm for 35 minutes. A 2 ml aliquot of the supernatant was then neutralized by adding 0.5 ml of 2 M Tris, pH 8.8 and mixing. The sample was then placed on an alumina column (40 mg, Spe-ed CAT cartridge; Applied Separations; Bethlehem, Pa.) and the catecholamines were bound, washed and eluted using a vacuum manifold system (Adsorbex SPU, EM Science, Cherry Hill, N.J.) operating at ca. 4 ml/min. until the column was dry. Washes of 1 ml H20—0.5 ml MeOH—1 ml H20 were followed by elution with 1 ml of extraction solvent. A 200 μl sample of the eluant was injected onto a C-18 reversed phase analytical HPLC column, 5 um, 4.6 mm×250 mm (e.g., Beckman #235335, LKB 2134-630 Spherisorb ODS-2) and eluted with a recycled mobile phase run at ambient temperature and a flow rate of 0.5 ml/min (ca. 75 bar). Mobile Phase: 0.02 M Na2HP04 in 75/25(v/v) H20/MeOH 0.007% SDS pH 3.5 (conc. H3P04). The separated catecholamines were detected with a LKB 2143 electrochemical detector at a potential setting of 500 mV using a teflon flow cell spacer of 2.2 μl and a time constant of 2 sec. Peak heights were measured and recorded along with the chromatogram tracing using a Spectra-Physics 4270 integrator. […] The resulting factor (calculated for each sample) was used to correct for losses due to dilution, non-specific binding to the tissue precipitate, incomplete elution, etc. Concentrations were calculated by multiplying the peak heights for Epi, NE and DA by that samples correction factor and then dividing this value by the peak height of the respective standard. […] This value is multiplied by the volume of the homogenate (determined previously) to get the total catecholamine content of the tissue expressed in moles/g tissue. […]

Assay [1] deals with Spontaneously Hypertensive Rats (SHR). As to the kind of experiment: Assay VII: acute effects on arterial pressure in anesthetized SHR. Format: in vivo, rat. Conditions: for Mean arterial pressure: i.v.: fusaric acid and fusaric acid hydrazide 100 mg/kg, Ex. #859 250 mg/kg. How it is done:
Mean arterial pressure effects of fusaric acid hydrazide (100 mg/kg, i.v.), fusaric acid (100 mg/kg, i.v.) and Ex. #859 conjugate (250 mg/kg, i.v.) are shown in Table XXVII during a vehicle control period and 60 min post-injection of compound in anesthetized SHR. Rats were prepared as described above, minus the renal artery flow probe.

Another assay deals with conscious SHR. The assay is described as follows: Assay XIII: antihypertensive experiments in conscious SHR (renal denervation, bulbocapnine). Type of assay: in vivo, rat. How it is done: For antihypertensive experiments, male SHR (11-13 weeks of age; Harlan Sprague-Dawley, Inc.; Indianapolis, Ind.) were habituated for 3-4 days in individual experimental cages, which became their home cages for the duration of the study. Five to seven days before experimentation, SHR were anesthetized with chloral hydrate (400 mg/kg; Sigma Chemical Co., St. Louis, Mo.) and catheters were implanted into a femoral artery and vein. The catheters were led to the back of the neck, exteriorized, and channeled through a tether and swivel system (Alice King Chatham, Los Angeles, Calif.). Surgical renal denervation was performed as above. […] In separate groups of conscious SHR, Ex. #859 (5 mg/kg/hr, n=6) was infused alone, Ex. #859 (5 mg/kg/hr, n=6) was coinfused with bulbocapnine (100 μg/kg/min), or Ex. #859 (10 mg/kg/hr, n=6) was infused 5-7 days after surgical renal denervation. Surgical renal denervation was performed as described above. After a one hour control measure of mean arterial pressure, compounds were infused for four hours and mean arterial pressure was measured continuously.

Assay [2] concerns DOCA hypertensive micropigs. As to the kind of experiment: Assay XIV: chronic in vivo effects in DOCA hypertensive micropigs. On the set-up: species or system micropig. Conditions: for Mean arterial pressure: 5 mg/kg/hr infusion. The method, then: This study examines the efficacy of Ex. #859 in deoxycorticosterone acetate ([…]) hypertensive micropigs (Charles River; 6 months of age). Micropigs were made hypertensive by implanting subcutaneously DOCA strips (100 mg/kg) under isoflurane anesthesia. Hypertension stabilizes after one month. Mean arterial pressure was measured using a Gould chart recorder and Statham P23dB transducers. After one month Ex. #859 conjugate was infused for three days at 5 mg/kg/hr).

Molecules are shown by their SMILES.

Consider `CCCCc1ccc(C(=O)NNC(=O)CCC(NC(C)=O)C(=O)O)nc1` [Ex. #859, N-acetyl-L-glutamic acid, 5-[(5-butyl-2-pyridinyl)-carbonyl]hydrazide], for which the “heart norepinephrine concentration relative to vehicle” value with rats, heart and kidneys was “only fusaric acid decreased heart norepinephrine concentration”. The “kidney norepinephrine concentration relative to vehicle” value in the assay on rats, heart and kidneys is reported as “decreased kidney norepinephrine concentration”. Besides, the Mean arterial pressure was determined as 146 ± 15 mmHg in assay [1] (60 MIN post-injection); 151 ± 9 mmHg in assay [1] (ZERO (vehicle control period)); 168 ± 8 in the assay on conscious SHR (BULBO: 5 mg/kg/hr coinfused with bulbocapnine 100 μg/kg/min, 0 hours); 158 ± 6 with conscious SHR (BULBO: 5 mg/kg/hr coinfused with bulbocapnine 100 μg/kg/min, 1 hour); 148 ± 5 with conscious SHR (BULBO: 5 mg/kg/hr coinfused with bulbocapnine 100 μg/kg/min, 2 hours); 140 ± 7 in the assay on conscious SHR (BULBO: 5 mg/kg/hr coinfused with bulbocapnine 100 μg/kg/min, 3 hours). The Mean arterial pressure is given as 140 ± 5 with conscious SHR (BULBO: 5 mg/kg/hr coinfused with bulbocapnine 100 μg/kg/min, 4 hours); 157 ± 3 with conscious SHR (DNX: 10 mg/kg/hr after surgical renal denervation, 0 hours); 155 ± 4 in the assay with conscious SHR (DNX: 10 mg/kg/hr after surgical renal denervation, 1 hour); 53 ± 4 with conscious SHR (DNX: 10 mg/kg/hr after surgical renal denervation, 2 hours); 150 ± 4 in the assay with conscious SHR (DNX: 10 mg/kg/hr after surgical renal denervation, 3 hours); 147 ± 4 with conscious SHR (DNX: 10 mg/kg/hr after surgical renal denervation, 4 hours). Besides, the Mean arterial pressure was 177 ± 6 in the assay with conscious SHR (infused alone 5 mg/kg/hr, 0 hours); 172 ± 6 in the assay on conscious SHR (infused alone 5 mg/kg/hr, 1 hour); 170 ± 7 with conscious SHR (infused alone 5 mg/kg/hr, 2 hours); 164 ± 7 in the assay on conscious SHR (infused alone 5 mg/kg/hr, 3 hours); 154 ± 6 in the assay on conscious SHR (infused alone 5 mg/kg/hr, 4 hours); 151 ± 4 in assay [2] (Day 1). The “Mean arterial pressure” value is listed as 132 ± 4 in assay [2] (Day 2) and 119 ± 3 in assay [2] (Day 3). Also, the “hypotensive effect / effect on mean arterial pressure” value in assay [1] (i.v., 60 min post-injection) is on record as “no effect”. The “effect on mean arterial pressure over a four hour period” value is “lowered mean arterial pressure similar to Ex. #859 alone” with conscious SHR (conscious SHR, 5 mg/kg/hr coinfused with bulbocapnine (100 μg/kg/min)) and “antihypertensive” with conscious SHR (conscious SHR, continuous infusion 5 mg/kg/hr alone). In the assay with conscious SHR (conscious SHR, 10 mg/kg/hr, 5-7 days after surgical renal denervation), the antihypertensive response result is “prevented the antihypertensive response”. For the same molecule, the “effect on mean arterial pressure” value in assay [2] (conscious DOCA hypertensive micropigs, infusion 5 mg/kg/hr for three days) was “normalized mean arterial pressure”.
Turning to `CCCCc1ccc(C(=O)O)nc1` [Fusaric Acid, 5-n-butylpicolinic acid], in the assay with rats, heart and kidneys, the “heart norepinephrine concentration relative to vehicle” value was “decreased heart norepinephrine concentration” and the “kidney norepinephrine concentration relative to vehicle” value was “decreased kidney norepinephrine concentration”. Besides, the Mean arterial pressure in assay [1] (60 MIN post-injection) stood at 110 ± 21 mmHg. The Mean arterial pressure in assay [1] (ZERO (vehicle control period)) is recorded as 164 ± 10 mmHg.

The record behind these values is patent publication US20030220521A1, “Renal-selective prodrugs for control of renal sympathetic nerve activity in the treatment of hypertension” (G.D. Searle & Co., priority 1989, published 2003).
